Experimental data taken from article PMC10120462, “Styrylquinazoline derivatives as ABL inhibitors selective for different DFG orientations” (Journal of Enzyme Inhibition and Medicinal Chemistry, 2023).
Counter-ions that a name gives are not always drawn.

What was measured:
Lyn B = target: T1, Lyn B (Homo sapiens, UniProt P07948); assay: Tyrosine kinase assay (Kinase Selectivity System TK-2, ADP-Glo); assay type: biochemical; conditions: 1 h incubation, mean ± SD of four experiments
T1 construct: purchased Promega

Src = target: T2, Src (Homo sapiens, UniProt P12931); assay: as above; assay type: biochemical; conditions: 1 h incubation, mean ± SD of four experiments
T2 construct: purchased Promega

Fyn A = target: T3, Fyn A (Homo sapiens, UniProt P06241); assay: as above; assay type: biochemical; conditions: 1 h incubation, mean ± SD of four experiments
T3 construct: purchased Promega
Text: All newly synthesised derivatives were screened for their inhibitory potential towards eight non-receptor tyrosine kinases, such as ABL, BTK, BRK and Src family kinases, such as CSK, Lyn, Lck, Fyn and Src. […] To facilitate the analysis of the structure and enzymatic activity, all tested compounds were divided into four subgroups based on the main structural scaffolds (the general structure of each group is shown in the second column of Table 1). Series A, B, and C were subdivided according to the S^4-aryl substituent, while D represents the different styryl groups at the C^2-quinazoline position.
Herein, we used a kinase assay that contained fully expressed kinases with their regulatory domains, which are responsible for autoinhibition. The proteins are present in their unphosphorylated form and the procedure required supplementation with ATP. Importantly, autophosphorylation of ABL is dependent on […] concentration of the protein. Thus, our experimental conditions reflect the cellular process to be simulated. The luminescence signal detected after one hour of incubation with a peptide substrate was a measure of inhibition. Under these conditions, the question of whether the inhibitors tested bind to the ortho or allosteric site of the protein could be answered. […] To test this hypothesis, further molecular docking experiments were performed to more precisely determine the binding of the tested compounds to the ABL kinase.
To determine the inhibition of non-receptor tyrosine kinases, assays were performed using the kinase selectivity system TK-2 and the ADP-Glo Kinase Assay (both from Promega). The protocol was previously developed by our group and described in reports[12]^,[36]. Experiments were performed at least four times. Data are expressed as percentage of tyrosine kinase inhibitory activity after treatment with the derivatives tested.

Lck = target: T4, Lck (Homo sapiens, UniProt P06239); assay: as above; assay type: biochemical; conditions: 1 h incubation, mean ± SD of four experiments
T4 construct: purchased Promega

K562 = assay: Cytotoxicity studies (MTS), antiproliferative activity; assay type: cell-based, human; conditions: Homo sapiens, K562; 72 h, MTS
Text: (§1) In contrast, the other cell lines studied represent common cancers found in the human population. Nevertheless, these cell lines are characterised by a different landscape of kinase expression, as reported in[36]. In chronic leukaemia cells, an aberration of the Philadelphia chromosome is common in which a fragment of chromosome 9 is displaced to chromosome 22, leading to the formation of the oncogenic protein BCR-ABL. The altered structure of the protein leads to abnormal activity that promotes excessive growth and differentiation of cells even in the absence of growth factors, as well as inhibition of apoptosis and formation of metastases. Moreover, the status of the TP53 gene in leukaemia is not insignificant. Mutations of the TP53 gene occur in more than 50% of all cancers, leading to increased metastasis and an overall poor prognosis[38]^,[39]. The p53 protein encoded by this gene plays a pivotal role in controlling cell division or cell fate when damage is detected. […] Therefore, interaction between the signalling network of the BCR-ABL pathway and p53 often results in an impairment of p53 function and survival[43]^,[44]. […] Selectivity studies were performed on normal human fibroblast – NHDF cell line.
(§2) M. Rusin from the Maria Sklodowska-Curie Memorial Cancer Centre and Institute of Oncology in Gliwice, Poland. […] G. Kramer-Marek from the Institute of Cancer Research in London, United Kingdom. The human suspension chronic myeloids leukaemia cell line K562 and the pancreatic ductal adenocarcinoma cell line PANC-1 were purchased from Merck. The normal human dermal fibroblasts cell line NHDF were obtained from PromoCell. All adherent cancer cell lines were cultured in Dulbecco’s Modified Eagle’s medium (DMEM) supplemented with 10% heat-inactivated foetal bovine serum – FBS (all from Merck). […] Each complete medium contained a mixture of two antibiotics - penicillin and streptomycin (1% v/v; Gibco). Cell lines were cultured at 37 °C with 5% CO2 humidified atmosphere.
(§3) The assay was carried out after 72 h of incubation with different concentrations of the tested compounds. Then DMEM without phenol red was added to each well with CellTiter 96®AQueous One Solution-MTS (Promega) solution and incubated for 1 h or 3 h (PANC-1) at 37 °C. The optical densities of the samples were measured at 490 nm using a multi-plate reader (Synergy 4, BioTek). […] Each compound was tested in triplicate in a single experiment and each experiment was performed three or four times.

MCF-7 = assay: as above; assay type: cell-based, human; conditions: Homo sapiens, MCF7; 72 h, MTS
Text: as §1, §2, §3

HCT 116 p53+/+ = assay: as above; assay type: cell-based, human; conditions: Homo sapiens, HCT-116; 72 h, MTS
Text: as §1, §2, §3

U-251 = assay: as above; assay type: cell-based, human; conditions: Homo sapiens, U-251; 72 h, MTS
Text: as §1, §2, §3

PANC-1 = assay: as above; assay type: cell-based, human; conditions: Homo sapiens, PANC-1; 72 h, MTS
Text: as §1, §2, §3

ABL = target: T5, ABL (Homo sapiens, UniProt P00519); assay: Tyrosine kinase assay (Kinase Selectivity System TK-2, ADP-Glo); assay type: biochemical; conditions: 1 h incubation, mean ± SD of four experiments
T5 construct: purchased Promega

CSK = target: T6, CSK (Homo sapiens, UniProt P41240); assay: as above; assay type: biochemical; conditions: 1 h incubation, mean ± SD of four experiments
T6 construct: purchased Promega

BTK = target: T7, BTK (Homo sapiens, UniProt Q06187); assay: as above; assay type: biochemical; conditions: 1 h incubation, mean ± SD of four experiments
T7 construct: purchased Promega

BRK = target: T8, BRK (Homo sapiens, UniProt Q13882); assay: as above; assay type: biochemical; conditions: 1 h incubation, mean ± SD of four experiments
T8 construct: purchased Promega

HCT 116 p53−/− = assay: Cytotoxicity studies (MTS), antiproliferative activity; assay type: cell-based, human; conditions: Homo sapiens, HCT-116; 72 h, MTS
Text: as §1, §2, §3

A549 = assay: as above; assay type: cell-based, human; conditions: Homo sapiens, A549; 72 h, MTS
Text: as §1, §2, §3

NHDF = assay: Cytotoxicity studies (MTS), normal fibroblasts; assay type: cell-based; conditions: 72 h, normal human fibroblasts, read-out: Antiproliferative activity IC50 NHDF
Text: as §1, §2, §3

T3 sequence (P06241 whole entry): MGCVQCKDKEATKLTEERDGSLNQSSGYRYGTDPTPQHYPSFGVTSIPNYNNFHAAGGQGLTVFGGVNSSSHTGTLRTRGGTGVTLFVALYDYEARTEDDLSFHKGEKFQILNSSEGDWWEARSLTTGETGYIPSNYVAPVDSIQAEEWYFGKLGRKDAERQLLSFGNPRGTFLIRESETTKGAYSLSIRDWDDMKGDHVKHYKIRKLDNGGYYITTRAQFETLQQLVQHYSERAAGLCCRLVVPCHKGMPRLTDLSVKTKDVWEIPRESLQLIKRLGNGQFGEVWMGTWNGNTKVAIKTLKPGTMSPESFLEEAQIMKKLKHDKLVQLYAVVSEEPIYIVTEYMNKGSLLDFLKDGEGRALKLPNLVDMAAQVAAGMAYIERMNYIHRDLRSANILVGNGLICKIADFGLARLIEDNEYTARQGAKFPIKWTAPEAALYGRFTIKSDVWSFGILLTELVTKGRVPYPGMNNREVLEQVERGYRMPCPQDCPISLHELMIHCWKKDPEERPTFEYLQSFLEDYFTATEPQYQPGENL
T2 sequence (P12931 whole entry): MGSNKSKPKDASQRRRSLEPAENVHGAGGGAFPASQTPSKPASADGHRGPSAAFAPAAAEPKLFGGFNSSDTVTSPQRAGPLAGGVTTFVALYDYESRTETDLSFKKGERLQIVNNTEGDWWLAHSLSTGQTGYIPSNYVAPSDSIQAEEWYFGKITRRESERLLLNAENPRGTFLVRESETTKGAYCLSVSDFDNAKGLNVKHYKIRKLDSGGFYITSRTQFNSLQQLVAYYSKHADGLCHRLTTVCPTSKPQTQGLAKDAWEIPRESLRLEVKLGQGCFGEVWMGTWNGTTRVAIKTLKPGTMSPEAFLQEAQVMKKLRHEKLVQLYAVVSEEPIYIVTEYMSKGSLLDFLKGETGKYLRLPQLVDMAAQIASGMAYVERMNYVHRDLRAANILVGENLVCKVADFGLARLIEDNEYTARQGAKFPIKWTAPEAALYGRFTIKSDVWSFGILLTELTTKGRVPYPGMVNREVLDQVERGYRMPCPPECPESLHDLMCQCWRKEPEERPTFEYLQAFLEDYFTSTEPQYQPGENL
T5 sequence (P00519 whole entry): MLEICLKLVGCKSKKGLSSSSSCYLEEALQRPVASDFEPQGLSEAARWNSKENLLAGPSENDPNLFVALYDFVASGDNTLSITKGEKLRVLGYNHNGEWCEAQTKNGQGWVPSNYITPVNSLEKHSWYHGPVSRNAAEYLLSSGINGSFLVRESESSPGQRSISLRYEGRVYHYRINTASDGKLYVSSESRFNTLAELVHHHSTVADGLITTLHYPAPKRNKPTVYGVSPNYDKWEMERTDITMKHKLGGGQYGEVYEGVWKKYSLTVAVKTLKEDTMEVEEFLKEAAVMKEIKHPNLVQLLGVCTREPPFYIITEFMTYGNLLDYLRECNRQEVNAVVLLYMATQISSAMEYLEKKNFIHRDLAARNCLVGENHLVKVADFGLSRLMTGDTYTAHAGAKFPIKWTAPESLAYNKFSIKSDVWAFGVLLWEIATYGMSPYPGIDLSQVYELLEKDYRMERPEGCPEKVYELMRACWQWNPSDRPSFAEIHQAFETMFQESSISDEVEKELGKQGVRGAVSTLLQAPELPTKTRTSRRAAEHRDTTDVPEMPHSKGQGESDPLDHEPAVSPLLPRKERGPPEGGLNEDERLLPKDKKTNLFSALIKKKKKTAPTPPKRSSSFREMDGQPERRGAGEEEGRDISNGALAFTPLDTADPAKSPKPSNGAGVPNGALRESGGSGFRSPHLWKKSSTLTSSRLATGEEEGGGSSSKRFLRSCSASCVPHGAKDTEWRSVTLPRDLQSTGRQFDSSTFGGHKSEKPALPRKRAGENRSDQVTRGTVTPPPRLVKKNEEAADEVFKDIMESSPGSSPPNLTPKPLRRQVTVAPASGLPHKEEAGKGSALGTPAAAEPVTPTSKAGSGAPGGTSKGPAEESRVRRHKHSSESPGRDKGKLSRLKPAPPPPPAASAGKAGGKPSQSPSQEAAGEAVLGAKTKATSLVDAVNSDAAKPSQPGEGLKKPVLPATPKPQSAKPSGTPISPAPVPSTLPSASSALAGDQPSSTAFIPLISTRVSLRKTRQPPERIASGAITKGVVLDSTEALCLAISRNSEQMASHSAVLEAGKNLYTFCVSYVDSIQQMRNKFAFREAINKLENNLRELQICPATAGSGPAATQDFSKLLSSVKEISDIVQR
T4 sequence (P06239 whole entry): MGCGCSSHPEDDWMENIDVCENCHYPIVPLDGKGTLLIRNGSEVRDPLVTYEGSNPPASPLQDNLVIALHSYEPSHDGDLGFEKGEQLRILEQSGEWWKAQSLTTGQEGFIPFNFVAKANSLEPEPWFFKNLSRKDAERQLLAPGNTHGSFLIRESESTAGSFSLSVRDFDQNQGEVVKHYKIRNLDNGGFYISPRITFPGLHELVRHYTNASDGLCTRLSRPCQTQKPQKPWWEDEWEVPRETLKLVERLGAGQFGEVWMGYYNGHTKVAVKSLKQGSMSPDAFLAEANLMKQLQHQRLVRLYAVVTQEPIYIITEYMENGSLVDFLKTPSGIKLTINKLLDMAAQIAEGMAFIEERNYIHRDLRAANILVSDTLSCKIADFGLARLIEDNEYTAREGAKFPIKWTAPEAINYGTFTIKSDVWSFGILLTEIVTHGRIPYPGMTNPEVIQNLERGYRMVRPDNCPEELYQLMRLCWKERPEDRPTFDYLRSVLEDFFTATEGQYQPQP
T1 sequence (P07948 1-491 isoform P07948-2): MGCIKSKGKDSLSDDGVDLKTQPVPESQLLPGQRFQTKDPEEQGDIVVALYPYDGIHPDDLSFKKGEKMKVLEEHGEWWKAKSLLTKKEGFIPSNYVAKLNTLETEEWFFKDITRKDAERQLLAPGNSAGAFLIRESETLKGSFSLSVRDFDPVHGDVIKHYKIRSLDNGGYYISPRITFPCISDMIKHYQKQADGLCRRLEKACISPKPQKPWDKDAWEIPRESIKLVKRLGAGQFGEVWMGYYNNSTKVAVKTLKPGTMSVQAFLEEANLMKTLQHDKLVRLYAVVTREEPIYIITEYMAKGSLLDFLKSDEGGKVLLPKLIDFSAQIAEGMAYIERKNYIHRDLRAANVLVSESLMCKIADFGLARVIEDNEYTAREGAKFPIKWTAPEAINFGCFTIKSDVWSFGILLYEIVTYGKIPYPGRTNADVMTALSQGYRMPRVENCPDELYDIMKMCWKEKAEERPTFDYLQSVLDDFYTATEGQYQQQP
T8 sequence (Q13882 whole entry): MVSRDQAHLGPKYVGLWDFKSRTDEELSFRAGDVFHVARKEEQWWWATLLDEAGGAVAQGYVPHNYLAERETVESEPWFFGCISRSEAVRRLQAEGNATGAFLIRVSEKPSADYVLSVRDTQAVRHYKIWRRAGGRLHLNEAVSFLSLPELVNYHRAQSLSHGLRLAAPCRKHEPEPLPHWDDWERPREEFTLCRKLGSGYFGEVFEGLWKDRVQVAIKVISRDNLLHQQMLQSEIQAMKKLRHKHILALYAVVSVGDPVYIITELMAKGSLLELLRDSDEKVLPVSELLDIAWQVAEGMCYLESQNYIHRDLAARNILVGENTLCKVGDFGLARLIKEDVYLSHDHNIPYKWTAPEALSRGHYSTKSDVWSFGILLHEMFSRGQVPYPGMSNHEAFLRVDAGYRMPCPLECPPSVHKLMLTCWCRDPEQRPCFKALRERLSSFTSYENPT
T7 sequence (Q06187 whole entry): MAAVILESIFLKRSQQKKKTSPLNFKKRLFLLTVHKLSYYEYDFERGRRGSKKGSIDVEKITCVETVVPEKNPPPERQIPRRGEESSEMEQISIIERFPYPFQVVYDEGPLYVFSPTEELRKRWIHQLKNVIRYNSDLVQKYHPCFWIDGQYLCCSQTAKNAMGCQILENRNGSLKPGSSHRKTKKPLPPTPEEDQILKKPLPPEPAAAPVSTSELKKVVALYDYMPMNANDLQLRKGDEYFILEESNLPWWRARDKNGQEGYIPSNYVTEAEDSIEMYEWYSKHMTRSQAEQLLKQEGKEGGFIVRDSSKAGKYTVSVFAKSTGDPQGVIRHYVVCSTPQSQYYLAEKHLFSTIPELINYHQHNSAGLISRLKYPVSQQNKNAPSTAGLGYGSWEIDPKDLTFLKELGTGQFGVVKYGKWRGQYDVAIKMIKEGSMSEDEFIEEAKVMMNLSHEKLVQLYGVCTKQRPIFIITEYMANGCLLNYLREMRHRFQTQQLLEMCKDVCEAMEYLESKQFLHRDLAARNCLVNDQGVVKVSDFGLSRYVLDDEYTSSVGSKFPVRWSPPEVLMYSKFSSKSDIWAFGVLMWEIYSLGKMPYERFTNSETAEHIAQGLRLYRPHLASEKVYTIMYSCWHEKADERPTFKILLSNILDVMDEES
T6 sequence (P41240 whole entry): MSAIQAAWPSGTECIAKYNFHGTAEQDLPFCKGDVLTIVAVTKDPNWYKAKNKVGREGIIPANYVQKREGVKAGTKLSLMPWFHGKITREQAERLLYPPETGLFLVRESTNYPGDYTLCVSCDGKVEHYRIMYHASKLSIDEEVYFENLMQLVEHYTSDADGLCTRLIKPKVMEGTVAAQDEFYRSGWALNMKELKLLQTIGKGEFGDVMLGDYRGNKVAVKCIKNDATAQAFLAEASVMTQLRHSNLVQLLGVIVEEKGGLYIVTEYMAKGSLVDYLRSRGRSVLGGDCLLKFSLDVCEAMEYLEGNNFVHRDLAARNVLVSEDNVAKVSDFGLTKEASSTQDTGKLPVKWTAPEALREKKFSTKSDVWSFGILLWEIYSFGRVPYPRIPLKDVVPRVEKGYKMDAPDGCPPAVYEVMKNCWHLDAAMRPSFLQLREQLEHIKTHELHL

| SMILES | inhibition at 0.5 µM (Lyn B) | inhibition at 0.5 µM (Src) | inhibition at 0.5 µM (Fyn A) | inhibition at 0.5 µM (Lck) | IC50 (K562) | IC50 (MCF-7) | IC50 (HCT 116 p53+/+) | IC50 (U-251) | IC50 (PANC-1) | inhibition at 0.5 µM (ABL) | inhibition at 0.5 µM (CSK) | inhibition at 0.5 µM (BTK) | inhibition at 0.5 µM (BRK) | IC50 (HCT 116 p53−/−) | IC50 (A549) | IC50 (NHDF) |
| --- | --- | --- | --- | --- | --- | --- | --- | --- | --- | --- | --- | --- | --- | --- | --- | --- |
| COc1ccccc1/C=C/c1nc(Sc2ccccn2)c2ccc(Cl)cc2n1 [IS14, 2-[(E)-2–(2-methoxyphenyl)ethenyl]-7-chloro-4-(pyrid-2-ylthio)quinazoline] | 0% | 40.5 ± 9.17% | 16 ± 7.94% | 14.8 ± 6.02% | 21.6 ± 2.1 µM | > 25 µM | > 25 µM | > 25 µM | > 25 µM | 7.64 ± 0.7% | 0% | – | – | – | – | – |
| Cc1nc(Nc2ncc(C(=O)Nc3c(C)cccc3Cl)s2)cc(N2CCN(CCO)CC2)n1 [Dasatinib, dasatinib, reference compound] | 97.5 ± 1.49% | – | 92.3 ± 2.55% | – | – | – | – | – | – | – | 94.2 ± 1.28% | – | – | – | – | – |
| COc1ccccc1/C=C/c1nc(Sc2cc(Cl)ccc2Cl)c2ccccc2n1 [IS3, 2-[(E)-2–(2-methoxyphenyl)ethenyl]-4–(2,5-dichlorophenylthio)quinazoline] | 26.2 ± 1.55% | 0% | 60 ± 2.85% | 13.4 ± 5.58% | > 25 µM | > 25 µM | > 25 µM | – | – | 4.02 ± 3.58% | 35 ± 1.11% | 31.6 ± 2.38% | 0% | > 25 µM | – | – |
| COc1cccc(Sc2nc(/C=C/c3ccccc3OC)nc3cc(Cl)ccc23)c1 [IS13, 2-[(E)-2–(2-methoxyphenyl)ethenyl]-7-chloro-4–(3-methoxyphenylthio)quinazoline] | 0% | 0% | 0% | 0% | > 25 µM | > 25 µM | > 25 µM | > 25 µM | – | 0% | 0% | 0% | 0% | > 25 µM | > 25 µM | – |
| COc1ccccc1/C=C/c1nc(Sc2ccccc2Cl)c2ccc(Cl)cc2n1 [IS12, 2-[(E)-2–(2-methoxyphenyl)ethenyl]-7-chloro-4–(2-chlorophenylthio)quinazoline] | 0% | 0% | 0% | 0% | > 25 µM | > 25 µM | > 25 µM | > 25 µM | – | 0% | 0% | 15.4 ± 4.19% | 0% | > 25 µM | > 25 µM | – |
| COc1ccc(/C=C/c2nc(NCCCN(C)C)c3ccccc3n2)cc1 [CP-31398, N'-[2-[2–(4-methoxyphenyl)ethenyl]-4-quinazolinyl]-N,N-dimethyl-1,3-propanediamine dihydrochloride, reference compound] | – | – | 30.6 ± 7.83% | – | 3.09 ± 0.36 µM | 27 ± 2.1 µM | 18.6 ± 0.92 µM | 18.8 ± 1.65 µM | > 25 µM | – | – | 36.8 ± 3.66% | – | 26.3 ± 1.41 µM | > 25 µM | 12.3 ± 0.54 µM |
